The target of test [1] is T1, Histone-lysine N-methyltransferase NSD2 (Homo sapiens, UniProt O96028).
T1 sequence (O96028 whole entry): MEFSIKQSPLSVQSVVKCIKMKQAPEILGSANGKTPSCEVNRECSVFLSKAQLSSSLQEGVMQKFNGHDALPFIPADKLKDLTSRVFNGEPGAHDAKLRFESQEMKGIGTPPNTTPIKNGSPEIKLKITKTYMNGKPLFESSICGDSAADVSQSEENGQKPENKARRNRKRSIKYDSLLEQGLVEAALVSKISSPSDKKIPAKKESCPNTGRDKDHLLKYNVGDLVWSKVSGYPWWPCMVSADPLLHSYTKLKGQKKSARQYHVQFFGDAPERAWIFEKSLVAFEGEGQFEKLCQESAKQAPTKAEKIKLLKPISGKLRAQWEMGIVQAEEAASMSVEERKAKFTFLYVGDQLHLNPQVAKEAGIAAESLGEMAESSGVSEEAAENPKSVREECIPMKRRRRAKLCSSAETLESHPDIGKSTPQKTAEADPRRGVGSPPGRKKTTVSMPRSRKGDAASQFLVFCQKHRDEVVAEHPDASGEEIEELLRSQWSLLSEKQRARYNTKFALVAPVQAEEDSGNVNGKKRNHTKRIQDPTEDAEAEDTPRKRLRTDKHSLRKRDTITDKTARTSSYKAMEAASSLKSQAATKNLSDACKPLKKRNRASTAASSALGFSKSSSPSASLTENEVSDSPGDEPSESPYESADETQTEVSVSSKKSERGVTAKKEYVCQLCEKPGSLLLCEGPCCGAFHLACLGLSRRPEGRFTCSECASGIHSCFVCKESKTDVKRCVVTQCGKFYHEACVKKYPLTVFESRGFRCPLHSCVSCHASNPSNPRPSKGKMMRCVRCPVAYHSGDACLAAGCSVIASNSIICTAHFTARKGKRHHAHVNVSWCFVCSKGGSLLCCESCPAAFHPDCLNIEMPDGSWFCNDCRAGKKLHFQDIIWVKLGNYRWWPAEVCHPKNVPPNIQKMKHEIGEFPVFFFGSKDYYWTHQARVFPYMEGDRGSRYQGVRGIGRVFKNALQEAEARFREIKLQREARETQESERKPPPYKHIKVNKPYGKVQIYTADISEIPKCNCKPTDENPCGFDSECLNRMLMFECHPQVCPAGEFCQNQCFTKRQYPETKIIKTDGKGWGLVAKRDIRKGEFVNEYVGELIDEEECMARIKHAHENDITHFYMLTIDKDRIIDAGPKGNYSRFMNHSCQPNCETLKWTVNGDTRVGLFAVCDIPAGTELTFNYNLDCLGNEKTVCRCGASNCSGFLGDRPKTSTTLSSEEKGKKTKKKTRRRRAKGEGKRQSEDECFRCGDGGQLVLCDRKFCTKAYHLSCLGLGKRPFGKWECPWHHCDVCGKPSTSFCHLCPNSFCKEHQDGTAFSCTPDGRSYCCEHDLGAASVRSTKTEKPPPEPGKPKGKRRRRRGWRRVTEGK
It counts as biochemical.

The target of the next test is T2, Protein RecA (Mycobacterium tuberculosis, UniProt P9WHJ3).
T2 sequence (P9WHJ3 whole entry): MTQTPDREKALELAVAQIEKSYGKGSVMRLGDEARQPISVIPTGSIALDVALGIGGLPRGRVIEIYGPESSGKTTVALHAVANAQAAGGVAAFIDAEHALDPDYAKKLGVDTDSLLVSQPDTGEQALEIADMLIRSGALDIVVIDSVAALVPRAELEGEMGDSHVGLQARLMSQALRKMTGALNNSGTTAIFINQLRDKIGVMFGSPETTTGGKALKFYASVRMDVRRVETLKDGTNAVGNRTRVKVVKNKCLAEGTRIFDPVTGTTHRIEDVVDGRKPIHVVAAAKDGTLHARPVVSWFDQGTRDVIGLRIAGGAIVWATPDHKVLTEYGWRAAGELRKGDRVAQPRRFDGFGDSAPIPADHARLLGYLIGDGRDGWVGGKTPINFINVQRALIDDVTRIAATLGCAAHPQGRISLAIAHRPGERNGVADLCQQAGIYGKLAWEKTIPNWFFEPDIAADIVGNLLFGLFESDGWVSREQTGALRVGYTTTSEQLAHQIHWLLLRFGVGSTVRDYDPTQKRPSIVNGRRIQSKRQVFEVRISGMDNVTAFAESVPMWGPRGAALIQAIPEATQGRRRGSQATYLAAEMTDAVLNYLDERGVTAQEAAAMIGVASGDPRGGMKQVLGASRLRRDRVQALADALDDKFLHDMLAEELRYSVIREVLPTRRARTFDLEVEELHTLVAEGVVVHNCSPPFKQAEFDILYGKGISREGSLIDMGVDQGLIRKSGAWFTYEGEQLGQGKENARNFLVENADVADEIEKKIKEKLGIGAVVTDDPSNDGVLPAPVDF
The experiment in a line: Fluorescence Cell-Free Homogeneous Dose Retest to Identify Inhibitors of RecA-Intein Splicing Activity. [Related pubchem assays (depositor defined):AID2097, AID2223, AID489010, AID492950]. The format is functional.

Test [2] addresses T3, Replicative DNA helicase DnaB (Mycobacterium tuberculosis, UniProt P9WMR3).
T3 sequence (P9WMR3 whole entry): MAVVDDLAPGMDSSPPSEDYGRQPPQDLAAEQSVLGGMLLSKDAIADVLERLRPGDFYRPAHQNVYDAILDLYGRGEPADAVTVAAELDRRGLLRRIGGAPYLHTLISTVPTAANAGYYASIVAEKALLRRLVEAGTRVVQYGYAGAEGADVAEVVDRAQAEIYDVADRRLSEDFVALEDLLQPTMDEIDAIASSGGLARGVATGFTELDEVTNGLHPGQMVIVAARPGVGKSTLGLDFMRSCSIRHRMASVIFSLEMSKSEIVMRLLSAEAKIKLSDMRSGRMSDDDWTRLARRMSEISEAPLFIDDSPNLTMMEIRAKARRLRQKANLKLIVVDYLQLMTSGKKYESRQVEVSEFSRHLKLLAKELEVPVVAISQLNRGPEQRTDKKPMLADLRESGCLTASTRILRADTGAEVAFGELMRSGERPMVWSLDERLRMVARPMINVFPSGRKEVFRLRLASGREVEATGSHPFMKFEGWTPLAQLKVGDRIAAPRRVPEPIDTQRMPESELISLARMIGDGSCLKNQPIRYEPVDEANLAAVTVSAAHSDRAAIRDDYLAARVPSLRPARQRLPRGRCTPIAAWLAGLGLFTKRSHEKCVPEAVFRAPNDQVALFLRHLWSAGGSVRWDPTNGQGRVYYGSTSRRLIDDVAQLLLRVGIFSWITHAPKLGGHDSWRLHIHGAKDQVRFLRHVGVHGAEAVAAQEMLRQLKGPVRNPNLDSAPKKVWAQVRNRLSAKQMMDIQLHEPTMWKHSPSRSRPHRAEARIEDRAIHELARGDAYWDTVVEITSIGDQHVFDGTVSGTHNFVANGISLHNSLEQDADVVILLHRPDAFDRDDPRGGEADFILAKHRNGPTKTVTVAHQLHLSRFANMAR
The test is described as follows: DnaB intein splicing inhibitors, dose response, biochemical, cell-free fluorescence (AID 449749). The format is functional.

Test [3] has as its target T4, Ubiquitin-conjugating enzyme E2 N (Homo sapiens, UniProt P61088).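 Note: Dose-response confirmation in a TR-FRET assay detecting UBC13-driven polyubiquitin chain formation, inhibition measured.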
T4 sequence (P61088 whole entry): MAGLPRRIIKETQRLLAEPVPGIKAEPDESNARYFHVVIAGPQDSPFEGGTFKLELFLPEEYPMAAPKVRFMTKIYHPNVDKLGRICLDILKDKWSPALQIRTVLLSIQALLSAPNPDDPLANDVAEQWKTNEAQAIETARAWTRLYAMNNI
The format is functional.

For test [4], the target named is T5, Calpain-2 catalytic subunit (Sus scrofa, UniProt P43367).
T5 sequence (P43367 whole entry): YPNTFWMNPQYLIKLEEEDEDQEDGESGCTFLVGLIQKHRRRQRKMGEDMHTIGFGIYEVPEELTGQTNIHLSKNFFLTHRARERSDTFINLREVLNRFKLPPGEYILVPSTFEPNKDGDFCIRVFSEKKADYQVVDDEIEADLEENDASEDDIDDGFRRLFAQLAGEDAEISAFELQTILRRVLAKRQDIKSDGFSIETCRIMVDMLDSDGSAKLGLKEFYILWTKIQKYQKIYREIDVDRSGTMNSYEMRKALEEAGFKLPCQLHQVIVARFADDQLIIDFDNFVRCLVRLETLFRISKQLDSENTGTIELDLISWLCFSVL
The experiment in a line: m-calpain protease blockers, concentration series – biochemical, fluorogenic peptide substrate, dose response (AID 1420). The format is functional.

A further test deals with INS1. The test is described as follows: INS-1E survival protection against cytokine death – cell-based, luminescence, retest, dose response (AID 449756).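 Note: cell death triggered by IL-1 beta plus TNF-alpha plus IFN-gamma mixture; protective hits raise ATP signal compared with cytokine alone wells.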 The format is functional. The note with it: Rattus norvegicus.
The target of test [5] is T6, Fatty acid synthase (Homo sapiens, UniProt P49327). The test is described as follows: inhibition of human FAS-TE enzyme activity – biochemical, endpoint fluorescence intensity, uHTS hits, dose response (AID 624327).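 Note: fluorescence from hydrolysis of an O-methyl fluorescein acyl ester substrate by the enzyme.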 It counts as functional.
T6 sequence (P49327 whole entry): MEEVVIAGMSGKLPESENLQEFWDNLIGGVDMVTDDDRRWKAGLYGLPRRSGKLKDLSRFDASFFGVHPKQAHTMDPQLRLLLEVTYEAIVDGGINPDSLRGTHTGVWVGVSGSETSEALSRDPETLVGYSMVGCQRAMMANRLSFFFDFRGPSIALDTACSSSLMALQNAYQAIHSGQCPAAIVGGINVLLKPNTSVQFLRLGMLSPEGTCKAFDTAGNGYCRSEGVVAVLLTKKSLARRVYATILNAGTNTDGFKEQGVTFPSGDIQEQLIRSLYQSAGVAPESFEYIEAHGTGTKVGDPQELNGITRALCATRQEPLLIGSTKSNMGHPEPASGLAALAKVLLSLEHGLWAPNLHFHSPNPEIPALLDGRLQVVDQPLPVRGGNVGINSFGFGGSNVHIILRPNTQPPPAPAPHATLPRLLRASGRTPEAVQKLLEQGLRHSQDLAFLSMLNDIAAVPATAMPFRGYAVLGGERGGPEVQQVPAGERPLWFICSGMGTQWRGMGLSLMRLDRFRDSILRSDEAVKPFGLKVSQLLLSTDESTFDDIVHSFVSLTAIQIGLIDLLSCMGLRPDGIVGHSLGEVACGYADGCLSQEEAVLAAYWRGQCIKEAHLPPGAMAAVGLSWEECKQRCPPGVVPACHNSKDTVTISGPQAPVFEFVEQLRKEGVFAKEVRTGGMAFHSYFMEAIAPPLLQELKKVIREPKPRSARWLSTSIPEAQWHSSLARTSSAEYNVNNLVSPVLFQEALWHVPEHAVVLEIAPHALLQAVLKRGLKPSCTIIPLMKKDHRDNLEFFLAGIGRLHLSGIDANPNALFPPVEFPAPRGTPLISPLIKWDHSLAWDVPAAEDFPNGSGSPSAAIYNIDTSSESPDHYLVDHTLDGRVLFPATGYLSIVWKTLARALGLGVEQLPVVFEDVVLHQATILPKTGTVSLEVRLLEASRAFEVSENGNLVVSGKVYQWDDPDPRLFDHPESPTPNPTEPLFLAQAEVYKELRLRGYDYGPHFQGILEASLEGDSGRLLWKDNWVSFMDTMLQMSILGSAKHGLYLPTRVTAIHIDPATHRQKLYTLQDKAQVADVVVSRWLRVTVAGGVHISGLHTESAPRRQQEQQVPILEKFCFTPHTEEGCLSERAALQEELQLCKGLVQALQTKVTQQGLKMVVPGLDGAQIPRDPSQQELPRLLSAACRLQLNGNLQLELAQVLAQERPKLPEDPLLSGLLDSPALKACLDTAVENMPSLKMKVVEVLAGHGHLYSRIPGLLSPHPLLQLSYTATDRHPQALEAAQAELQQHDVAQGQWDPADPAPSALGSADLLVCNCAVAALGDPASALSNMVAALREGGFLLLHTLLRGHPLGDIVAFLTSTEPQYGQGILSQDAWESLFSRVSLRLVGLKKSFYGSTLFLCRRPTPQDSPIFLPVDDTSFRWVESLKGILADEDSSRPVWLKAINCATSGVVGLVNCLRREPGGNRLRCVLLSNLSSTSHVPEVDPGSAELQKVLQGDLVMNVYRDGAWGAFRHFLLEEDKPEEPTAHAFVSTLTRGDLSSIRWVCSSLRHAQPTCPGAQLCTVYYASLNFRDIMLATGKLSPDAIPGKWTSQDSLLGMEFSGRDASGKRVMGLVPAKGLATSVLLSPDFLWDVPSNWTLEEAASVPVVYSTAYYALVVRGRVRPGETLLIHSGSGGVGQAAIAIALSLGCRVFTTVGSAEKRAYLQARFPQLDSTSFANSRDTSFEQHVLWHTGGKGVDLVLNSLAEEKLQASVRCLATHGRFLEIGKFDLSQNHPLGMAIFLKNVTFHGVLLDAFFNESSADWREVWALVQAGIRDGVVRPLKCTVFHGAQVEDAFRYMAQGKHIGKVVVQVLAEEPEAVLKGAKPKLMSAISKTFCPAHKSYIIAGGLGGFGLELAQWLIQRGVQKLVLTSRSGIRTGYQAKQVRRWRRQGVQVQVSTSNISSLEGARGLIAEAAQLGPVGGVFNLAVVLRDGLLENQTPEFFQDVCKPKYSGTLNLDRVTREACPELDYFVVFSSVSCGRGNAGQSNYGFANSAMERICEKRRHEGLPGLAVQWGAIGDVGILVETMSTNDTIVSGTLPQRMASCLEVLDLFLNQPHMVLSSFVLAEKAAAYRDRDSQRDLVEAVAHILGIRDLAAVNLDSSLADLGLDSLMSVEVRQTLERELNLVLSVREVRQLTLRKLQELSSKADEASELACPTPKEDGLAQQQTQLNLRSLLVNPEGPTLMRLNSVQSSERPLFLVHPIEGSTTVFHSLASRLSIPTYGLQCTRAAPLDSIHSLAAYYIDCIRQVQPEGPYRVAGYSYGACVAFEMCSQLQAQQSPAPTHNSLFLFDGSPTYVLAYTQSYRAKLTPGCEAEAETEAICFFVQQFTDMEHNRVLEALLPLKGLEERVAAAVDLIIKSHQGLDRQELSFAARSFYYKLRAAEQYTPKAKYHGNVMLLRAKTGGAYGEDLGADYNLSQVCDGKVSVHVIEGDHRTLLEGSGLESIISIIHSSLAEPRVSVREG
Test [6] has as its target T6, Fatty acid synthase. The test is described as follows: inhibition of human FAS-TE enzyme activity – biochemical, kinetic fluorescence intensity, dose response (AID 624326).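 Note: rate of fluorescence rise from hydrolysis of a fluorogenic O-methyl fluorescein ester substrate.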 It counts as functional.
The next test relates to Vero. The experiment in a line: cells. It counts as functional. The note with it: Chlorocebus sabaeus.
For a further test, the target named is Nonstructural protein 1 (Influenza A virus, UniProt Q194T2). It counts as functional, Influenza A virus (A/California/07/2009(H1N1)).
Chain of Nonstructural protein 1 (Q194T2 whole entry): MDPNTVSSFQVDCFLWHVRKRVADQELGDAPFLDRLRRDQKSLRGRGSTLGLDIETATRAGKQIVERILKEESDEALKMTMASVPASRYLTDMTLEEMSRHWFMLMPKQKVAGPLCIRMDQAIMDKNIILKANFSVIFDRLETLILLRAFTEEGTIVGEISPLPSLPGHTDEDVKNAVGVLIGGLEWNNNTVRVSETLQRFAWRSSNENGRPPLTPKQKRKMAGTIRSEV
Another test deals with T7, Protein skinhead-1 (Caenorhabditis elegans, UniProt P34707).
T7 sequence (P34707 whole entry): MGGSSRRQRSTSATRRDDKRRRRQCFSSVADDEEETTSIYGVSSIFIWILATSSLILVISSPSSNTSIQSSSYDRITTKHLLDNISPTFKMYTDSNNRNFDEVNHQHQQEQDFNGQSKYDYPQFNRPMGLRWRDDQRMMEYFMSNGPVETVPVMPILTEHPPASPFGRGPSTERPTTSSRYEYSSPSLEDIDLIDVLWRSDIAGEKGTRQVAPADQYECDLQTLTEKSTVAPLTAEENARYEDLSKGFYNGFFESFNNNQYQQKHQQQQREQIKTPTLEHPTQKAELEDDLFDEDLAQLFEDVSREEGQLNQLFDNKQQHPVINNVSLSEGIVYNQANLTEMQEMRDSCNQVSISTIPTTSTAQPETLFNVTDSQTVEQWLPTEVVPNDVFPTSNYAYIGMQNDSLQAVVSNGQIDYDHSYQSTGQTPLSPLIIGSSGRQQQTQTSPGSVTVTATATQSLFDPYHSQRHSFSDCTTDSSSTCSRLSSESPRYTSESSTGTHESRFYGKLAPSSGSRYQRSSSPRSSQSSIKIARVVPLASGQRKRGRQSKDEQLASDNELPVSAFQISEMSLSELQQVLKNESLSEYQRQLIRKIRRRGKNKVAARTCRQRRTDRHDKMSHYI
It counts as functional.

The record followed here is ChEMBL document CHEMBL1201862, “PubChem BioAssay data set” (2004).

Active and inactive are the calls of the source. Some results are limits rather than exact numbers.

For orientation: AC50 means the concentration giving half of the maximal activity seen. As a reminder, the EC50 is the concentration needed to bring the measured effect to its halfway point. By IC50 is commonly meant the concentration needed to halve the response being measured. As usually defined, the CC50 is the concentration that lowers cell viability or growth by half.

Consider `COc1cc(NC(C)CCCN)c2ncccc2c1Oc1ccccc1` (centres undefined), for which the results for the half-maximal activity concentration (AC50) in test [1] and in test [2] were 0.466 µM (active) and > 380 µM (inactive), respectively. Moreover, the EC50 on Protein RecA is 7.94 µM (active).

Take `CC(=O)c1ccc(Sc2ccc(C(C)=O)cc2)cc1`: the IC50 in test [3] is > 20 µM (inactive).

For `Cc1cc(C)c(NC(=S)NC(=O)c2ccc(-c3ccccc3)cc2)c(C)c1`, the concentration for half-maximal inhibition (IC50) in test [4] is recorded as 12.4 µM (not active). Same read-out and setting: as for `CCOc1ccc(NS(=O)(=O)c2ccc(NC(=S)NC(=O)CC(C)C)cc2)cc1`, the figure is 6.89 µM (not active). Take `O=C(N=Nc1c(O)[nH]c2ccc(Cl)cc12)c1cc(-c2cccs2)nc2ccccc12`: the IC50 in [4] is reported as 10.3 µM (not active).

For the compound `Cc1ccc(C(C(=O)NCC2CCCO2)N(C(=O)c2snc(C(N)=O)c2N)c2ccc(F)cc2)o1` (centres undefined), the IC50 in test [3] was > 20 µM (inactive).

Consider `CCOc1ccc(OCC)c(S(=O)(=O)NCCOC23CC4CC(CC(C4)C2)C3)c1`, for which the half-inhibitory concentration (IC50) in [4] is reported as 8.71 µM (not active). The concentration at half-maximal activity (AC50) in the test on INS1 was 8.76 µM (active). On to `O=C(COC(=O)c1cc([N+](=O)[O-])ccc1NCc1ccccc1)NC1CCCCC1`, for which the 50% inhibitory concentration (IC50) on Fatty acid synthase [5] was 1.31 µM (active); at Fatty acid synthase [6], 1.64 µM (active). Moreover, the CC50 with Vero is > 25 µM (active).

With `O=C(O)c1ccc(CSc2nc[nH]n2)cc1`, the half-inhibitory concentration (IC50) in test [4] was < 0.4 µM (not active). For the compound `CC(C)Oc1ccccc1/C=N/Nc1ccccc1[N+](=O)[O-]`, on Nonstructural protein 1, the concentration for half-maximal inhibition (IC50) was 31.2 µM (active).

With `Cc1ccc(N=Nc2ccc3ccccc3c2O)cc1`, the IC50 at Nonstructural protein 1 was 5.83 µM (active). Turning to `Cc1cc(Br)cn2c(Cc3ccsc3)c(-c3ccccc3)nc12`, the IC50 on Protein skinhead-1 was > 100 µM (inactive). Take `CCCOc1ccc(NC(=O)CC2C(=O)N(C)C(=S)N2Cc2cccs2)cc1` (centres undefined): the IC50 at Fatty acid synthase [5] was 9.62 µM (active); on Fatty acid synthase [6] it was 7.42 µM (active).

As for `Cc1cc2cc(CN=C(S)NCc3ccccc3)ccc2n1C`, the IC50 on Protein skinhead-1 is > 100 µM (inactive).

For `c1ccc(SCc2cc(-c3ccccc3)no2)cc1`, the IC50 at Protein skinhead-1 is 17.6 µM (active). For the compound `COc1ccc(OC)c(NC2c3ccccc3C(=O)N2Cc2ccc3c(c2)OCO3)c1` (centres undefined), at Nonstructural protein 1, the IC50 is 57.5 µM (active). As for `Cc1cc2cc(CNC(=O)C3CC3)ccc2n1C`, the IC50 on Protein skinhead-1 is > 100 µM (inactive). As to `COCCOc1ccc(C(F)(F)F)cc1NC(=O)COC(=O)c1cc([N+](=O)[O-])ccc1N1CCOCC1`, the values for the IC50 at Fatty acid synthase [5] and at Fatty acid synthase [6] were 5.58 µM (active) and 6.42 µM (active), respectively. The like results for `CC(=O)NNc1nc(-c2ccccc2)cs1` were, in that order, 18.6 µM (active) and 18.2 µM (active). For the compound `c1ccc(CSc2ncnc3sccc23)cc1`, the IC50 at Protein skinhead-1 is 92.7 µM (inactive). As to `O=C(Nc1cccc(Cl)c1)c1cc(-c2ccco2)on1`, at Protein skinhead-1, the IC50 was > 100 µM (inactive).
